# Assay results from patent US20160316791A1, “METHOD TO PROTECT LIPOPHILIC NUTRIENTS AGAINST RUMINAL DEGRADATION” (UNIVERSITEIT GENT, priority 2013, published 2016).
# Test system: dairy cows
# Assay: In vivo protection and transfer of t10c12-CLA to milk, milk fat content
# Details: 7 g per cow daily; FIG. 9
# Protocol: Eight dairy cows in mid-lactation (100 to 220 days in milk, 562 to 712 kg live weight, minimum daily production of 20 to 25 kg milk) were used in a sequential set-up to test the in vivo protection of fatty acids and transfer to the milk. Two supplements were tested: First, a protected fatty acid emulsion, prepared according to Example 1, was administered (n=4). This product consisted of a protein extract from potato tuber peels, which was further used to emulsify a commercially available triacylglyceride mixture of cis-9, trans-11 and trans-10, cis-12 conjugated linoleic acid (t10c12-CLA) (TONALIN® TG80, BASF-AG, Ludwigshafen, Germany) and protected against rumen degradation through the creation of protein-phenol complexes by addition of 4-methylcatechol. The degree of rumen bypass of t10c12 CLA was assessed in vitro as described in Example 1 before the start of the in vivo trial. […]
# The experimental period consisted of six weeks. […] Milk fat content was determined by Fourier Transform Infrared analysis (FTIR Delta Instruments, Drachten, The Netherlands) and fatty acids determined as described by Jorjong et al.^(19) Milk fat is presented as percentage of the total mass of milk produced per day and t10c12-CLA as g per 100 g of fatty acids detected.
compound,measurement,value
"CCCCC/C=C\C=C\CCCCCCCCC(=O)O [t10c12-CLA, trans-10, cis-12 conjugated linoleic acid]",transfer of dietary t10c12-CLA to the milk,up to 5%
